{
  "source": "ChEMBL document CHEMBL5584354",
  "about": "“Impact of Conjugation of the Reactive Oxygen Species (ROS)-Generating Catalytic Moiety with Membrane-Active Antimicrobial Peptoids: Promoting Multitarget Mechanism and Enhancing Selectivity” (J Med Chem, 2024)",
  "key": {"Erythrocyte": {"system": "Erythrocyte", "assay": "Hemolytic activity in male Sprague-Dawley rat erythrocytes assessed as concentration required for 10% hemolysis incubated for 1 hr by absorbance based method", "type": "toxicity, cell-based"}, "Lipopolysaccharide (LPS)": {"system": "Lipopolysaccharide (LPS)", "assay": "Binding affinity to Escherichia coli O111:B4 LPS at 0 to 25 uM BODIPY-TR-cadaverine substitution assay", "type": "subcellular", "settings": "dose 0-25 µM"}, "Staphylococcus aureus": {"system": "Staphylococcus aureus", "assay": "Antibacterial activity against Staphylococcus aureus ATCC 25923 assessed as inhibition of bacterial growth incubated for 24 hrs by broth dilution method", "type": "functional"}, "Escherichia coli [1]": {"system": "Escherichia coli", "assay": "Antibacterial activity against carbapenem-resistant Escherichia coli NMS11035 harboring extended-spectrum beta-lactamase assessed as inhibition of bacterial growth incubated for 24 hrs by broth dilution method", "type": "functional"}, "Escherichia coli [2]": {"system": "Escherichia coli", "assay": "Induction of lipid peroxidation in Escherichia coli ATCC 25922 at 12.5 uM incubated for 1 hrs by BODIPY 581/591 C11 dye based flow cytometry analysis", "type": "functional, organism-based"}, "Acinetobacter baumannii": {"system": "Acinetobacter baumannii", "assay": "Antibacterial activity against carbapenem-resistant Acinetobacter baumannii NMS1707 harboring extended-spectrum beta-lactamase assessed as inhibition of bacterial growth incubated for 24 hrs by broth dilution method", "type": "functional"}, "RAW264.7 [3]": {"system": "RAW264.7", "assay": "Antiinflammatory activity in LPS-stimulated mouse RAW264.7 cells assessed as reduction in nitrite production at 10 uM incubated for 16 hrs by ELISA relative to control", "type": "functional", "design": "scale not given: the % may be the effect or the level left"}, "Escherichia coli [4]": {"system": "Escherichia coli", "assay": "Antibacterial activity against colistin-resistant Escherichia coli NMS12 harboring extended-spectrum beta-lactamase assessed as inhibition of bacterial growth incubated for 24 hrs by broth dilution method", "type": "functional"}, "Cell membrane [5]": {"system": "Cell membrane", "assay": "Disruption of inner membrane in Escherichia coli ATCC 25922 assessed as increase in absorbance incubated for 1 hr by ONPG assay", "type": "cell membranes", "settings": "dose 0-25 µM"}, "RAW264.7 [6]": {"system": "RAW264.7", "assay": "Antiinflammatory activity in LPS-stimulated mouse RAW264.7 cells assessed as reduction in IL-6 production at 10 uM incubated for 16 hrs by ELISA relative to control", "type": "functional", "design": "scale not given: the % may be the effect or the level left"}, "Escherichia coli [7]": {"system": "Escherichia coli", "assay": "Induction of lipid peroxidation in Escherichia coli ATCC 25922 assessed as increase in MDA level at 10 uM incubated for 2 hrs by TBARS assay", "type": "functional, organism-based"}, "HEK293": {"system": "HEK293", "assay": "Cytotoxicity against HEK293 cells assessed as cell killing incubated for 24 hrs by MTS assay", "type": "toxicity, cell-based", "settings": "human, hek293, 24 h"}, "[8]": {"assay": "Selectivity index, ratio of HC10 for hemolytic activity in male Sprague-Dawley rat erythrocytes to MIC for antibacterial activity against Escherichia coli ATCC 25922", "type": "toxicity", "settings": "read-out: Selectivity Index"}, "[9]": {"assay": "Hemolytic activity in male Sprague-Dawley rat erythrocytes at 50 uM incubated for 1 hr by absorbance based method relative to control", "type": "toxicity, cell-based, Erythrocyte", "settings": "read-out: Activity"}, "[10]": {"assay": "Hemolytic activity in male Sprague-Dawley rat erythrocytes at 100 uM incubated for 1 hr by absorbance based method relative to control", "type": "toxicity, cell-based, Erythrocyte", "settings": "read-out: Activity"}, "[11]": {"assay": "Hemolytic activity in male Sprague-Dawley rat erythrocytes assessed as concentration required for 50% hemolysis incubated for 1 hr by absorbance based method", "type": "toxicity, cell-based, Erythrocyte"}, "RAW264.7 [12]": {"system": "RAW264.7", "assay": "Antiinflammatory activity in LPS-stimulated mouse RAW264.7 cells assessed as reduction in TNFalpha production at 10 uM incubated for 16 hrs by ELISA relative to control", "type": "functional", "design": "scale not given: the % may be the effect or the level left"}, "Escherichia coli [13]": {"system": "Escherichia coli", "assay": "Induction of lipid peroxidation in Escherichia coli ATCC 25922 assessed as increase in green fluorescence at 12.5 uM incubated for 1 hrs by BODIPY 581/591 C11 dye based confocal microscopic analysis", "type": "functional, organism-based"}, "DNA": {"system": "DNA", "assay": "Binding affinity to pUC19 plasmid DNA (unknown origin) assessed as smearing and retardation of DNA bands at 25 uM incubated for 2 hrs by agarose gel imaging method", "type": "nucleic-acid assay"}, "[14]": {"assay": "Hemolytic activity in male Sprague-Dawley rat erythrocytes at 25 uM incubated for 1 hr by absorbance based method relative to control", "type": "toxicity, cell-based, Erythrocyte", "settings": "read-out: Activity"}, "Escherichia coli [15]": {"system": "Escherichia coli", "assay": "Antibacterial activity against Escherichia coli ATCC 25922 assessed as inhibition of bacterial growth incubated for 24 hrs by broth dilution method", "type": "functional"}, "RAW264.7 [16]": {"system": "RAW264.7", "assay": "Cytotoxicity against mouse RAW264.7 cells assessed as cell killing incubated for 24 hrs by MTS assay", "type": "toxicity, cell-based", "settings": "raw264.7, 24 h"}, "[17]": {"assay": "Cytotoxicity against mouse RAW264.7 cells assessed as cell viability at 20 uM incubated for 24 hrs by […] relative to control", "type": "toxicity, cell-based", "settings": "read-out: Activity"}, "RAW264.7 [18]": {"system": "RAW264.7", "assay": "Antiinflammatory activity in LPS-stimulated mouse RAW264.7 cells assessed as reduction in IL-1beta production at 10 uM incubated for 16 hrs by ELISA relative to control", "type": "functional", "design": "scale not given: the % may be the effect or the level left"}, "HaCaT": {"system": "HaCaT", "assay": "Cytotoxicity against human HaCaT cells assessed as cell killing incubated for 24 hrs by MTS assay", "type": "toxicity, cell-based"}, "MRC5": {"system": "MRC5", "assay": "Cytotoxicity against human MRC5 cells assessed as cell killing incubated for 24 hrs by MTS assay", "type": "toxicity, cell-based", "settings": "mrc5, 24 h"}, "[19]": {"assay": "Cytotoxicity against mouse RAW264.7 cells assessed as cell viability at 10 uM incubated for 24 hrs by […] relative to control", "type": "toxicity, cell-based", "settings": "read-out: Activity"}, "Cell membrane [20]": {"system": "Cell membrane", "assay": "Disruption of outer membrane in Escherichia coli ATCC 25922 assessed as increase in absorbance measured every 5 mins for 90 mins by nitrocefin assay", "type": "cell membranes", "settings": "dose 0-25 µM"}, "Klebsiella pneumoniae": {"system": "Klebsiella pneumoniae", "assay": "Antibacterial activity against carbapenem-resistant Klebsiella pneumoniae NMS118 harboring extended-spectrum beta-lactamase assessed as inhibition of bacterial growth incubated for 24 hrs by broth dilution method", "type": "functional"}, "[21]": {"assay": "Cytotoxicity against mouse RAW264.7 cells assessed as cell survival at 5 uM incubated for 24 hrs in presence of copper by […] relative to control", "type": "toxicity, cell-based", "settings": "read-out: Survival"}, "[22]": {"assay": "Cytotoxicity against mouse RAW264.7 cells assessed as cell survival at 5 uM incubated for 24 hrs in presence of nickel by […] relative to control", "type": "toxicity, cell-based", "settings": "read-out: Survival"}, "[23]": {"assay": "Cytotoxicity against HEK293 cells assessed as reduction in cell survival at 6.3 uM incubated for 24 hrs by WST-8 assay relative to control", "type": "toxicity, cell-based", "settings": "human, read-out: Survival"}, "[24]": {"assay": "Cytotoxicity against mouse RAW264.7 cells assessed as cell survival at 5 uM incubated for 24 hrs by […] relative to control", "type": "toxicity, cell-based", "settings": "read-out: Survival"}, "[25]": {"assay": "Cytotoxicity against mouse L929 cells assessed as reduction in cell survival at 6.3 uM incubated for 24 hrs by WST-8 assay relative to control", "type": "toxicity, cell-based", "settings": "read-out: Survival"}},
  "note": "Calls of active or inactive are those of the source. The calls are words filed in the database; no cut-off is given here. Non-standard residues stand in square brackets, D forms with d. Residues, ends and D or L forms follow the SMILES beside them. Gly(N(CH2)2(3-indolyl)) = O=C(O)CNCCc1c[nH]c2ccccc12; Nspe = C[C@H](NCC(=O)O)c1ccccc1; Nlys = NCCCCNCC(=O)O",
  "data": [
    {"smiles": "C[C@@H](c1ccccc1)N(CC(=O)N(CCCCN)CC(=O)N(CCc1c[nH]c2ccccc12)CC(=O)N(CCc1c[nH]c2ccccc12)CC(N)=O)C(=O)CN(CCCCN)C(=O)CN(CCCCN)C(=O)CN(C(=O)CN(C(=O)CN(CCCCN)C(=O)CN(C(=O)CN(C(=O)CNCCCCN)[C@@H](C)c1ccccc1)[C@@H](C)c1ccccc1)[C@@H](C)c1ccccc1)[C@@H](C)c1ccccc1", "note": "(H-[Nlys][Nspe][Nspe][Nlys][Nspe][Nspe][Nlys][Nlys][Nspe][Nlys][Gly(N(CH2)2(3-indolyl))][Gly(N(CH2)2(3-indolyl))]-NH2)", "values": [
      {"measurement": "HC10", "setting": "Erythrocyte", "value": "> 100", "unit": "µM"},
      {"measurement": "Activity", "setting": "Lipopolysaccharide (LPS)", "value": "Active"},
      {"measurement": "MIC", "setting": "Staphylococcus aureus", "value": 6.3, "unit": "µM"},
      {"measurement": "MIC", "setting": "Escherichia coli [1]", "value": 6.3, "unit": "µM"},
      {"measurement": "Activity", "setting": "Escherichia coli [2]", "value": "Active"},
      {"measurement": "MIC", "setting": "Acinetobacter baumannii", "value": 3.1, "unit": "µM"},
      {"measurement": "Activity", "setting": "RAW264.7 [3]", "value": 88.7, "unit": "%"},
      {"measurement": "MIC", "setting": "Escherichia coli [4]", "value": 12.5, "unit": "µM"},
      {"measurement": "Activity", "setting": "Cell membrane [5]", "value": "Dose-Dependent Effect"},
      {"measurement": "Activity", "setting": "RAW264.7 [6]", "value": 99, "unit": "%"},
      {"measurement": "Activity", "setting": "Escherichia coli [7]", "value": "Active"},
      {"measurement": "LC50", "setting": "HEK293", "value": 16.3, "unit": "µM"},
      {"measurement": "selectivity ratio", "setting": "[8]", "value": "> 15.8"},
      {"measurement": "hemolysis at 1 h, 50 µM", "setting": "[9]", "value": 7.85, "unit": "%"},
      {"measurement": "hemolysis at 1 h, 100 µM", "setting": "[10]", "value": 6.7, "unit": "%"},
      {"measurement": "HC50 at 1 h", "setting": "[11]", "value": "> 100", "unit": "µM"},
      {"measurement": "Activity", "setting": "RAW264.7 [12]", "value": 54.4, "unit": "%"},
      {"measurement": "Activity", "setting": "Escherichia coli [13]", "value": "Active"},
      {"measurement": "Activity", "setting": "DNA", "value": "Active"},
      {"measurement": "hemolysis at 1 h, 25 µM", "setting": "[14]", "value": 2.72, "unit": "%"},
      {"measurement": "MIC", "setting": "Escherichia coli [15]", "value": 6.3, "unit": "µM"},
      {"measurement": "LC50", "setting": "RAW264.7 [16]", "value": 14.9, "unit": "µM"},
      {"measurement": "viability at 24 h, 20 µM", "setting": "[17]", "value": 14.7, "unit": "%"},
      {"measurement": "Activity", "setting": "RAW264.7 [18]", "value": 72.9, "unit": "%"},
      {"measurement": "LC50", "setting": "HaCaT", "value": 18.8, "unit": "µM"},
      {"measurement": "LC50", "setting": "MRC5", "value": 11.8, "unit": "µM"},
      {"measurement": "viability at 24 h, 10 µM", "setting": "[19]", "value": 55.9, "unit": "%"},
      {"measurement": "Activity", "setting": "Cell membrane [20]", "value": "Dose-Dependent Effect"},
      {"measurement": "MIC", "setting": "Klebsiella pneumoniae", "value": 12.5, "unit": "µM"}
    ]},
    {"smiles": "CC[C@H](C)[C@H](NC(=O)CN)C(=O)NCC(=O)N[C@@H](C)C(=O)N[C@H](C(=O)N[C@@H](CC(C)C)C(=O)N[C@@H](CCCCN)C(=O)N[C@H](C(=O)N[C@@H](CC(C)C)C(=O)N[C@H](C(=O)N[C@H](C(=O)NCC(=O)N[C@@H](CC(C)C)C(=O)N1CCC[C@H]1C(=O)N[C@@H](C)C(=O)N[C@@H](CC(C)C)C(=O)N[C@H](C(=O)N[C@@H](CO)C(=O)N[C@@H](Cc1c[nH]c2ccccc12)C(=O)N[C@H](C(=O)N[C@@H](CCCCN)C(=O)N[C@@H](CCCNC(=N)N)C(=O)N[C@@H](CCCCN)C(=O)N[C@@H](CCCNC(=N)N)C(=O)N[C@@H](CCC(N)=O)C(=O)N[C@@H](CCC(N)=O)C(N)=O)[C@@H](C)CC)[C@@H](C)CC)[C@@H](C)O)[C@@H](C)O)C(C)C)C(C)C", "note": "[MELITTIN]", "values": [
      {"measurement": "viability at 24 h, 5 µM", "setting": "[21]", "value": "< 24.6", "unit": "%"},
      {"measurement": "viability at 24 h, 5 µM", "setting": "[22]", "value": "< 24.6", "unit": "%"},
      {"measurement": "viability at 24 h, 6.3 µM", "setting": "[23]", "value": "< 21.5", "unit": "%"},
      {"measurement": "viability at 24 h, 5 µM", "setting": "[24]", "value": "< 24.6", "unit": "%"},
      {"measurement": "viability at 24 h, 6.3 µM", "setting": "[25]", "value": "< 21.5", "unit": "%"}
    ]}
  ]
}
